Measured values as given in publication PMC6588697, “Lugdunin amplifies innate immune responses in the skin in synergy with host- and microbiota-derived factors” (Nature Communications, 2019).
Values joined by “and” are separate entries in the source; they are usually repeats but may differ in a detail not shown here. Equal entries are not always repeated.

Experiments:
S. aureus = S. aureus skin colonization after epicutaneous pretreatment of mouse skin (CFU); format: in vivo, C57BL/6 WT mice; conditions: treatment of mouse skin; text to Fig 1b
Description: Fig. 1 Lugdunin sensitizes epithelial cells for innate immune defense. a Primary human keratinocytes (PHKs) were pretreated with S. epidermidis conditioned medium (CM), indicated lugdunin concentrations, or the combination of both for 20 h. Subsequently, cells were infected with S. aureus for 1.5 h followed by cell lysis and determination of colony-forming units (CFUs). Shown is one representative experiment of three independent experiments with six technical replicates ± s.e.m. n.s., not significant. b Dorsal skin of mice was pretreated with S. epidermidis CM, 1.5 µg lugdunin alone or in combination with S. epidermidis CM for 24 h. Subsequently, S. aureus CFUs were determined. Horizontal lines represent the mean of each group ± s.e.m. c PHKs were treated with 2 μM lugdunin or with S. epidermidis CM alone or in combination for 20 h and subsequently expression of indicated antimicrobial peptides (AMPs) (respective protein names in brackets) was analyzed and normalized to actin. Shown is one representative experiment of three independent experiments with two technical replicates ± s.e.m. d PHKs were treated with 2 µM lugdunin or 100 ng/mL Pam2Cys for 5 h and subsequently the concentration of indicated cytokines in the supernatant was analyzed by LEGENDplex^TM (BioLegend). […]

HEK293-TLR2 cells = assay: CXCL8 release by HEK-TLR2 cells (LEGENDplex); format: cell-based, human
Description: Fig. 2 Induction of chemokine (C-X-C motif) ligand 8/macrophage inflammatory protein-2 (CXCL8/MIP-2) by lugdunin is TLR2/MyD88-dependent. a HEK-control or HEK-TLR2 cells were treated with 2 μM lugdunin for 5 h and subsequently the CXCL8 concentration in the supernatant was analyzed by LEGENDplex^TM (BioLegend). Shown is one representative experiment of three independent experiments with two technical replicates ± s.e.m. b HEK-control or HEK-TLR2 cells were treated with increasing concentrations of lugdunin for 5 h and subsequently expression of CXCL8 was analyzed and normalized to actin. Shown is one representative experiment of three independent experiments with two technical replicates ± s.e.m. c Schematic overview of the mouse experiments: 6–8-week-old female C5BL/6 WT, MyD88-knockout (ko), or 5xTLR-ko mice were epicutaneously treated with 1.5 µg lugdunin or phosphate-buffered saline (PBS) as a control. […] Significant differences to control treatments were analyzed by an unpaired two-tailed t test (*P < 0.05; **P < 0.01; ***P < 0.001). f Representative MIP-2-stained paraffin-embedded mouse skin sections. […]
Supplementary Figure 2: CXCL8 controls and other cytokines in mouse skin 46 a: HEK-control cells or HEK -TLR2 cells were treated with 100 ng/mL Pam2Cys for 5 47 hours and subsequently the CXCL8 concentration in the supernatant was analyzed. […]

Lugdunin
reduction of colonizing S. aureus (in words) (S. aureus): slight, but not significant, reduction
CXCL8 concentration in supernatant (HEK293-TLR2 cells; HEK-TLR2 cells, lugdunin 2 µM, 5 h, two technical replicates, Fig 2a): 564.521 and 585.121
CXCL8 induction level in HEK-TLR2 cells, times lower than Pam2Cys/Pam3Cys-mediated TLR2 activation (HEK293-TLR2 cells; text to Fig 2a and Supp Fig 2): 1000 fold
